Experimental data from US20160257735A1, “REGULATION OF NPVF GENE AND ITS PRODUCTS: A METHOD FOR MODULATING ENERGY IMBALANCE” (Institute of Animal Reproduction and Food Research PAS, priority 2015, published 2016).
Ends that are not written are not given here.

Experiments:
[1] = molecular target: NPFFR1 (Homo sapiens, UniProt Q9GZQ6); conditions: cited from earlier work
[2] = test system: Npvf mRNA in hypothalamus; test: CL 316,243 or saline administration for 7 days at 29° C., Npvf mRNA in hypothalamus by qRT-PCR; format: in vivo, mice (C57BL/6J); conditions: one week administration, 1 mg/kg of body weight, subcutaneous, mice at 29° C.
Protocol: Total RNA was isolated from adipose tissue, liver and hypothalamus using TRI Reagent and BCP phase separation reagent (Molecular Research Center Inc. Cincinnati, Ohio, United States). RNA was further purified by using the RNAeasy minikit (QIAGEN, Valencia, Calif., United States) and stored at −80° C. in RNase-free H2O with addition of SUPERase-In (Ambion, Austin, Tex., United States) for RNase protection. Quality and quantity of RNA was determined using UV spectrophotometry (Nanodrop) and agarose gel visualization of intact RNA. Quantitative RT-PCR using TaqMan probes and primers (Applied Biosystems, Foster City, Calif., United States) was performed with standard curves generated using pooled RNA isolated from corresponding tissues collected from eight 8 week old C57BL/6J.+/+ mice. Probe and primer sequences used to perform the analyses are available upon request. All the gene expression data were normalized to the level of cyclophilin b.
To establish the influence of different ambient temperature on Npvf expression mice were kept in climate-controlled rodent incubators. To evaluate the effects of the β adrenergic receptor agonist on Ucp1 and Npvf, thermoneutrally acclimated mice were injected subcutaneously with 1 mg kg^−1 […] or saline for 7 days.
All mice used in the following studies were adult wild-type C57BL/6J+/+ mice. […]

[3] = test system: NPFF receptors (NPFF1 and NPFF2 subtypes); conditions: cited from earlier work
[4] = molecular target: T1, rat orphan 7TM GPCR (OT7T022, GPR147, NPFFR1) (Rattus norvegicus, UniProt Q9EP86); conditions: synthetic RFRPs; cited from earlier work
T1 construct: expressed in transfected cells; host or cells: CHO cells
T1 sequence (Q9EP86 whole entry): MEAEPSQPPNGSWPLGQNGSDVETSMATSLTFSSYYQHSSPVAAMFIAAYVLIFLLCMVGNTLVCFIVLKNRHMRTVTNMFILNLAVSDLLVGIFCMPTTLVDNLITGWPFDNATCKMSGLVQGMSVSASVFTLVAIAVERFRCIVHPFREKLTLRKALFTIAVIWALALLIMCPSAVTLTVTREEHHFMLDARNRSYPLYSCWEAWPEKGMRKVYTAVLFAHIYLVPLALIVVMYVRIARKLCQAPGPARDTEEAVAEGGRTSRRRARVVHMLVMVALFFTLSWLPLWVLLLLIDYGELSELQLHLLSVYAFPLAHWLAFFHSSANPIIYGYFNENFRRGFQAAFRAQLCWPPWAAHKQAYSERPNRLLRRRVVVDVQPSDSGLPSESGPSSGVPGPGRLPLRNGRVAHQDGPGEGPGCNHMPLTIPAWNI

Chain of NPFFR1 (Q9GZQ6 whole entry, species assumed): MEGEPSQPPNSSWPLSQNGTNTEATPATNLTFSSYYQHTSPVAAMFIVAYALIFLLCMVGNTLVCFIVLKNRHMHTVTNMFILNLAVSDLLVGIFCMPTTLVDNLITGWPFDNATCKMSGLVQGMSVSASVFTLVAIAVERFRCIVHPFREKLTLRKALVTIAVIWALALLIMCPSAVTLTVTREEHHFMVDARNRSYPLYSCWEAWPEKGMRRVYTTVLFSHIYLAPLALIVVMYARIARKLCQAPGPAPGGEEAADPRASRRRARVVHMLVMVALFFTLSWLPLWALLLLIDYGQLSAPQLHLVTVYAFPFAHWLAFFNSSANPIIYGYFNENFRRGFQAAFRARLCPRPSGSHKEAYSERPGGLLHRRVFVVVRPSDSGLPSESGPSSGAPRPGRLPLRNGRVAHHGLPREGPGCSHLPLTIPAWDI

Q: Which “binding to NPFFR1” value [1] does the source give for `NC(N)=NCCC[C@@H](NC(=O)C(c1ccccc1)c1ccccc1)C(=O)NCc1ccc(O)cc1` [BIBP3226] here?
A: has been shown to bind to NPFFR1

Q: Which “suppression of Npvf mRNA in hypothalamus compared to saline-treated control mice” value [2] does the source give for `C[C@H](Cc1ccc2c(c1)OC(C(=O)[O-])(C(=O)[O-])O2)NC[C@H](O)c1cccc(Cl)c1.[Na+].[Na+]` [CL 316,243] here?
A: did not result in the suppression of Npvf mRNA in hypothalamus

Q: Which “discrimination between NPFF1 and NPFF2 subtypes” value [3] does the source give for `NC(=O)[C@H](Cc1ccccc1)NC(=O)[C@H](CCCN=C(N)N)NC(=O)C12CC3CC(CC(C3)C1)C2` [RF9, adamantylcarbonyl-arginyl-phenylalaninamide] here?
A: does not distinguish between the NPFF1 and NPFF2 subtypes

Q: And the “selectivity for NPFF receptors” value [3]?
A: selective for NPFF receptors

Q: Which “response of GPR147-transfected CHO cell lines” value [4] does the source give for “RFRP-1: RFamide-related peptide derived from Npvf precursor; human sequence MPHSFANLPLRF-NH(2) (SEQ ID NO: 1) (MPHSFANLPLRF-NH2; listed as Homo sapiens)” here?
A: responded specifically

Q: For “RFRP-3: RFamide-related peptide derived from Npvf precursor; human sequence VPNLPQRF-NH(2) (SEQ ID NO: 2)”, which “response of GPR147-transfected CHO cell lines” value [4] is on record?
A: responded specifically
